Values after ≈ are worked out from the molar mass of the structure shown. Active and inactive are the calls of the source. No cut-off for these calls is given here. Peptide text beside a SMILES is read from it.
How the values were obtained:
Candida albicans = test: Antifungal activity against Candida albicans ATCC 10231 incubated overnight by standard microtiter dilution method; assay type: functional
Salmonella typhimurium [1] = test: Antibacterial activity against Salmonella typhimurium DT104 assessed as reduction in IL-8 mRNA level in ileum at 20 mg/kg, ip administered for 3 days and measured on day 7 by RT-PCR analysis; assay type: functional, organism-based; details: Salmonella enterica subsp. enterica serovar Typhimurium, time 7.0 day
Salmonella typhimurium [2] = test: Antibacterial activity against Salmonella typhimurium DT104 assessed as increase in ZO-1 mRNA level in colon at 20 mg/kg, ip administered for 3 days and measured on day 7 by RT-PCR analysis; assay type: functional, organism-based; details: Salmonella enterica subsp. enterica serovar Typhimurium, time 7.0 day
Salmonella typhimurium [3] = test: Antibacterial activity against Salmonella typhimurium DT104 infected in mouse RAW264.7 cells assessed as reduction in bacterial cells at 1 times of MIC measured for 180 mins by MH agar based serial dilution method; assay type: functional, organism-based; details: Salmonella enterica subsp. enterica serovar Typhimurium
[4] = Hemolytic activity in human Red blood cells assessed as hemolysis at 128 ug/ml incubated for 1 hrs by absorbance based microplate reader analysis relative to control; assay type: toxicity, cell-based, Erythrocyte; details: red blood cells (erythrocytes), at 128 µg/mL, read-out: Activity
Salmonella typhimurium [5] = test: Antibacterial activity against Salmonella typhimurium DT104 assessed as reduction in TNF-alpha mRNA level in ileum at 20 mg/kg, ip administered for 3 days and measured on day 7 by RT-PCR analysis; assay type: functional, organism-based; details: Salmonella enterica subsp. enterica serovar Typhimurium, time 7.0 day
RAW264.7 [6] = test: Anti-inflammatory activity in mouse RAW264.7 cells assessed as inhibition of LPS-induced iNOS mRNA expression at 15 ug/ml preincubated with compound for 30 mins followed by LPS stimulation and measured after 4 hrs by RT-PCR analysis; assay type: functional, cell-based; details: dose 15.0 µg/ml, time 4.5 hrs
Salmonella typhimurium [7] = test: Antibacterial activity against multi-drug resistant Salmonella typhimurium DT104 infected in ICR mouse model assessed as reduction in bacterial population in fecus at 2 mg/kg, ip administered for 3 days; assay type: functional, organism-based; details: Salmonella enterica subsp. enterica serovar Typhimurium, time 3.0 day
Lipid bilayer = test: Induction of outer membrane permeabilization in Salmonella typhimurium DT104 at 0.625 to 15 microg/ml by NPN uptake based fluorescence spectrophotometric analysis; details: Salmonella enterica subsp. enterica serovar Typhimurium, dose 0.625-15 µg/ml
Salmonella typhimurium [8] = test: Antibacterial activity against Salmonella typhimurium DT104 infected in ICR mouse model assessed as body weight gain at 2 mg/kg, ip administered for 3 days and measured from day 4 to day 7; assay type: functional, organism-based; details: Salmonella enterica subsp. enterica serovar Typhimurium, time 7.0 day
Salmonella paratyphi = test: Antibacterial activity against Salmonella paratyphi A CICC 21501 incubated overnight by standard microtiter dilution method; assay type: functional, Salmonella enterica subsp. enterica serovar Paratyphi A; details: Salmonella enterica
Salmonella typhimurium [9] = test: Antibacterial activity against Salmonella typhimurium DT104 infected in ICR mouse model assessed as reduction in bacterial translocation to liver at 2 mg/kg, ip administered for 3 days and measured on day 7 by serial dilution method; assay type: functional, organism-based; details: Salmonella enterica subsp. enterica serovar Typhimurium, time 7.0 day
Salmonella typhimurium [10] = test: Antibacterial activity against Salmonella typhimurium DT104 in the presence of CaCl2 by MH broth based assay; assay type: functional, Salmonella enterica subsp. enterica serovar Typhimurium; details: Salmonella enterica
Cell membrane [11] = test: Induction of membrane damage in Salmonella typhimurium DT104 assessed as membrane creping at 1 times of MIC incubated for 60 mins by atomic force microscopic analysis; assay type: subcellular; details: Salmonella enterica subsp. enterica serovar Typhimurium
[12] = Antibacterial activity against Salmonella wandsworth CICC 21504 incubated overnight by standard microtiter dilution method; assay type: functional, Salmonella enterica subsp. enterica serovar Wandsworth; details: Salmonella enterica
Cell membrane [13] = test: Induction of cytoplasmic membrane depolarization in Salmonella typhimurium DT104 assessed as increase in fluorescence intensity at 2 times of MIC incubated for 15 mins by DiSC3-5 dye based fluorescence method; assay type: subcellular; details: Salmonella enterica subsp. enterica serovar Typhimurium
[14] = Antibacterial activity against Salmonella enterica subsp. enterica serovar Choleraesuis ATCC 13312 incubated overnight by standard microtiter dilution method; assay type: functional
Cell membrane [15] = test: Disruption of membrane integrity in Salmonella typhimurium DT104 assessed as increase in fluorescence intensity at 0.5 to 2 times of MIC incubated for 15 mins by PI staining based flow cytometric analysis; assay type: subcellular; details: Salmonella enterica subsp. enterica serovar Typhimurium
RAW264.7 [16] = test: Inhibition of LPS-stimulated TNF-alpha production in mouse RAW264.7 cells at 1 to 128 ug/ml incubated for 24 hrs by ELISA analysis; assay type: functional, cell-based; details: dose 1-128 µg/ml
Enterococcus faecalis = test: Antibacterial activity against Enterococcus faecalis ATCC 29212 incubated overnight by standard microtiter dilution method; assay type: functional
Salmonella typhimurium [17] = test: Antibacterial activity against Salmonella typhimurium DT104 infected in ICR mouse model assessed as increase in ZO-1 expression in villous at 20 mg/kg, ip administered for 3 days and measured on day 7 […] by immunohistochemistry analysis; assay type: functional, organism-based; details: Salmonella enterica subsp. enterica serovar Typhimurium, time 7.0 day
Salmonella typhimurium [18] = test: Antibacterial activity against Salmonella typhimurium DT104 infected in mouse RAW264.7 cells assessed as bacterial killing at 1 times of MIC measured after 90 mins by MH agar based serial dilution method relative to control; assay type: functional, Salmonella enterica subsp. enterica serovar Typhimurium; details: 1.5 h
Salmonella enteritidis = test: Antibacterial activity against Salmonella enteritidis CICC 21527 incubated overnight by standard microtiter dilution method; assay type: functional, Salmonella enterica subsp. enterica serovar Enteritidis; details: Salmonella enterica
Staphylococcus aureus = test: Antibacterial activity against methicillin-resistant Staphylococcus aureus ATCC 43300 incubated overnight by standard microtiter dilution method; assay type: functional
RAW264.7 [19] = test: Anti-inflammatory activity in mouse RAW264.7 cells assessed as inhibition of LPS-induced TNF-alpha mRNA expression at 15 ug/ml preincubated with compound for 30 mins followed by LPS stimulation and measured after 4 hrs by RT-PCR analysis; assay type: functional, cell-based; details: dose 15.0 µg/ml, time 4.5 hrs
Salmonella typhimurium [20] = test: Antibacterial activity against Salmonella typhimurium DT104 assessed as increase in claudin mRNA level in colon at 20 mg/kg, ip administered for 3 days and measured on day 7 by RT-PCR analysis; assay type: functional, organism-based; details: Salmonella enterica subsp. enterica serovar Typhimurium, time 7.0 day
RAW264.7 [21] = test: Anti-inflammatory activity in mouse RAW264.7 cells assessed as inhibition of LPS-induced IL-4 mRNA expression at 15 ug/ml preincubated with compound for 30 mins followed by LPS stimulation and measured after 4 hrs by RT-PCR analysis; assay type: functional, cell-based; details: dose 15.0 µg/ml, time 4.5 hrs
Salmonella typhimurium [22] = test: Antibacterial activity against Salmonella typhimurium DT104 in the presence of FeCl3 by MH broth based assay; assay type: functional, Salmonella enterica subsp. enterica serovar Typhimurium; details: Salmonella enterica
Salmonella typhimurium [23] = test: Antibacterial activity against Salmonella typhimurium DT104 in the presence of MgCl2 by MH broth based assay; assay type: functional, Salmonella enterica subsp. enterica serovar Typhimurium; details: Salmonella enterica
Salmonella typhimurium [24] = test: Antibacterial activity against Salmonella typhimurium DT104 infected in ICR mouse model assessed as alleviation of villi shortening at 20 mg/kg, ip administered for 3 days and measured on day 7 by H&E staining based analysis; assay type: functional, organism-based; details: Salmonella enterica subsp. enterica serovar Typhimurium, time 7.0 day
Salmonella typhimurium [25] = test: Antibacterial activity against Salmonella typhimurium DT104 in the presence 25% inactivated mouse serum by MH broth based assay; assay type: functional, Salmonella enterica subsp. enterica serovar Typhimurium; details: Salmonella enterica
Salmonella typhimurium [26] = test: Antibacterial activity against Salmonella typhimurium DT104 infected in mouse RAW264.7 cells assessed as log reduction in bacterial colony count at 1 times of MIC measured after 90 mins by MH agar based serial dilution method; assay type: functional, Salmonella enterica subsp. enterica serovar Typhimurium; details: 1.5 h
Lipopolysaccharide (LPS) = test: Displacement of BODIPY-TR-cadaverine from Salmonella typhimurium LPS assessed as increase in fluorescence intensity by fluorescence spectrophotometric analysis; details: Salmonella enterica subsp. enterica serovar Typhimurium; dose 0.25-8 µg/ml
[27] = Cytotoxicity against mouse RAW264.7 cells infected with Salmonella typhimurium DT104 assessed as cell viability at 1 times of MIC measured at 180 min by MTT assay; assay type: toxicity, cell-based; details: RAW264.7 cells infected with Salmonella typhimurium DT104, read-out: Activity

C[C@@H](O)[C@H](NC(=O)[C@H](CS)NC(=O)[C@H](CCCCN)NC(=O)[C@H](Cc1c[nH]c2ccccc12)NC(=O)[C@H](CCCCN)NC(=O)[C@@H](N)Cc1c[nH]c2ccccc12)C(=O)N[C@@H](CCCCN)C(=O)N[C@@H](CO)C(=O)NCC(=O)N[C@@H](CS)C(=O)N[C@@H](CCCCN)C(=O)N[C@@H](Cc1c[nH]c2ccccc12)C(=O)N[C@@H](CCCCN)C(=O)N[C@@H](Cc1c[nH]c2ccccc12)C(N)=O (H-WKWKCTKSGCKWKW-NH2)
MIC (Candida albicans): 2 µg/mL (≈ 1.08 µM)
Activity (Salmonella typhimurium [1]): Active
Activity (Salmonella typhimurium [2]): Active
Activity (Salmonella typhimurium [3]): Active
hemolysis at 1 h, 128 ug/ml [4]: < 10%
Activity (Salmonella typhimurium [5]): Active
inhibition (RAW264.7 [6]): Active
Activity (Salmonella typhimurium [7]): Active
Activity (Lipid bilayer): Active
Activity (Salmonella typhimurium [8]): Active
MIC (Salmonella paratyphi): 8 µg/mL (≈ 4.31 µM)
Activity (Salmonella typhimurium [9]): Active
MIC (Salmonella typhimurium [10]): 8 µg/mL
Activity (Cell membrane [11]): Active
MIC [12]: 8 µg/mL (≈ 4.31 µM)
Activity (Cell membrane [13]): Active
MIC [14]: 1 µg/mL (≈ 0.539 µM)
Activity (Cell membrane [15]): Active
inhibition (RAW264.7 [16]): Active
MIC (Enterococcus faecalis): 2 µg/mL (≈ 1.08 µM)
Activity (Salmonella typhimurium [17]): Active
Activity (Salmonella typhimurium [18]): >99.9%
MIC (Salmonella enteritidis): 8 µg/mL (≈ 4.31 µM)
MIC (Staphylococcus aureus): 8 µg/mL (≈ 4.31 µM)
inhibition (RAW264.7 [19]): Active
Activity (Salmonella typhimurium [20]): Active
inhibition (RAW264.7 [21]): Active
MIC (Salmonella typhimurium [22]): 8 µg/mL
MIC (Salmonella typhimurium [23]): 4 µg/mL
Activity (Salmonella typhimurium [24]): Active
MIC (Salmonella typhimurium [25]): 16 µg/mL (≈ 8.63 µM)
log(activity) (Salmonella typhimurium [26]): 3
Activity (Lipopolysaccharide (LPS)): Dose-Dependent Effect
viability at 3 h, 1 times of MIC [27]: > 90%
